In PMC6979384, “Characterization of the plant homeodomain (PHD) reader family for their histone tail interactions” (Epigenetics & Chromatin, 2020):
Where no end group is shown, it is not given here. [ ]: non-standard residue; d: D form. Lys(Me3) = C[N+](C)(C)CCCC[C@H](N)C(=O)O; pT = C[C@@H](OP(=O)(O)O)[C@H](N)C(=O)O; Lys(Me) = CNCCCC[C@H](N)C(=O)O

Tests used:
Assay in all cases: Histone peptide microarray
Assay type in all cases: binding, human
DIDO1 = tested on: DIDO1
Procedure, shortened: (§1)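 Histone peptide library (293 synthetic peptides, single/combinatorial PTMs) arrayed and probed with 0.5 μM purified GST-PHD domain; optimized protocol; quadruplicate mean and SD reported.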

AIRE (PP) = tested on: AIRE (PP)
Procedure, shortened: as §1

KDM5A (3) = tested on: KDM5A (3)
Procedure, shortened: as §1

SP140L = tested on: SP140L
Procedure, shortened: as §1

KDM7A = tested on: KDM7A
Procedure, shortened: as §1

CHD5 (PPCC) = tested on: CHD5 (PPCC)
Procedure, shortened: as §1

KDM4C (TTP) = tested on: KDM4C (TTP)
Procedure, shortened: as §1

BPTF (PB) = tested on: BPTF (PB)
Procedure, shortened: as §1

BAZ2B = tested on: BAZ2B
Procedure, shortened: as §1

CHD4 (PPCC) = tested on: CHD4 (PPCC)
Procedure, shortened: as §1

CHD5 (PCC) = tested on: CHD5 (PCC)
Procedure, shortened: as §1

ING3 = tested on: ING3
Procedure, shortened: as §1

TRIM66 (PB) = tested on: TRIM66 (PB)
Procedure, shortened: as §1

MLL5 = tested on: MLL5
Procedure, shortened: as §1

ING5 = tested on: ING5
Procedure, shortened: as §1

MORC3 (CW) = tested on: MORC3 (CW)
Procedure, shortened: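 GST-PHD reader, 0.5 μM, probed on 293-peptide histone array (single/combinatorial PTMs); optimized array protocol; signal = mean ± SD, n = 4.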

ING1 = tested on: ING1
Procedure, shortened: as §1

PHF8 = tested on: PHF8
Procedure, shortened: as §1

PHF21A = tested on: PHF21A
Procedure, shortened: as §1

DPF2 (PPC2W2) = tested on: DPF2 (PPC2W2)
Procedure, shortened: as §1

KDM5B (1) = tested on: KDM5B (1)
Procedure, shortened: as §1

PHF2 = tested on: PHF2
Procedure, shortened: as §1

PHF13 = tested on: PHF13
Procedure, shortened: as §1

PHF23 = tested on: PHF23
Procedure, shortened: as §1

KDM5A (1) = tested on: KDM5A (1)
Procedure, shortened: as §1

TAF3 = tested on: TAF3
Procedure, shortened: as §1

ING4 = tested on: ING4
Procedure, shortened: as §1

RAG2 = tested on: RAG2
Procedure, shortened: as §1

ING2 = tested on: ING2
Procedure, shortened: as §1

KDM5B (3) = tested on: KDM5B (3)
Procedure, shortened: as §1

PHRF1 (RP) = tested on: PHRF1 (RP)
Procedure, shortened: as §1

[1] = histone peptide array, GST-tagged reader, arrays performed twice, n of 4
[2] = histone peptide array, GST-tagged reader, PPCC = Dual PHD + Dual Chromodomain, arrays performed twice, n of 4
[3] = histone peptide array, GST-tagged reader, PB = PHD + Bromodomain, arrays performed twice, n of 4

H3.3K36me3 (27-45): H3.3 27-45 (KSAPSTGGV[Lys(Me3)]KPHRYRPGT; UniProt P84243 28-46, looked up, fragment)
Array Heatmap signal, DIDO1 (DIDO1; [1]): 0.6308 | Array Heatmap signal, AIRE (PP) (AIRE (PP); [1]): 0.5852 | Array Heatmap signal, KDM5A (3) (KDM5A (3); [1]): 0.4596 | Array Heatmap signal, SP140L (SP140L; [1]): 0.3873 | Array Heatmap signal, KDM7A (KDM7A; [1]): 0.4319 | Array Heatmap signal, CHD5 (PPCC) (CHD5 (PPCC); [2]): 0.5971 | Array Heatmap signal, KDM4C (TTP) (KDM4C (TTP); histone peptide array, GST-tagged reader, TTP = Tandem Tudor domain + PHD, arrays performed twice, n of 4): 0.5574 | Array Heatmap signal, BPTF (PB) (BPTF (PB); [3]): 0.3644 | Array Heatmap signal, BAZ2B (BAZ2B; [1]): 0.5018 | Array Heatmap signal, CHD4 (PPCC) (CHD4 (PPCC); [2]): 0.6082 | Array Heatmap signal, CHD5 (PCC) (CHD5 (PCC); histone peptide array, GST-tagged reader, PCC = PHD + Dual Chromodomain, arrays performed twice, n of 4): 0.837 | Array Heatmap signal, ING3 (ING3; [1]): 0.4806 | Array Heatmap signal, TRIM66 (PB) (TRIM66 (PB); [3]): 0.5777 | Array Heatmap signal, MLL5 (MLL5; [1]): 0.5409 | Array Heatmap signal, ING5 (ING5; [1]): 0.3836 | Array Heatmap signal, MORC3 (CW) (MORC3 (CW); histone peptide array, GST-tagged reader, CW = CW-type Zn-finger, arrays performed twice, n of 4): 0.4025 | Array Heatmap signal, ING1 (ING1; [1]): 0.5245 | Array Heatmap signal, PHF8 (PHF8; [1]): 0.3825 | Array Heatmap signal, PHF21A (PHF21A; [1]): 0.5086 | Array Heatmap signal, DPF2 (PPC2W2) (DPF2 (PPC2W2); histone peptide array, GST-tagged reader, PPC2W2 = Dual PHD + C2W2-type Zn-finger, arrays performed twice, n of 4): 0.6714 | Array Heatmap signal, KDM5B (1) (KDM5B (1); [1]): 0.6389 | Array Heatmap signal, PHF2 (PHF2; [1]): 0.459 | Array Heatmap signal, PHF13 (PHF13; [1]): 0.6344 | Array Heatmap signal, PHF23 (PHF23; [1]): 0.5271 | Array Heatmap signal, KDM5A (1) (KDM5A (1); [1]): 0.5417 | Array Heatmap signal, TAF3 (TAF3; [1]): 0.2966 | Array Heatmap signal, ING4 (ING4; [1]): 0.493 | Array Heatmap signal, RAG2 (RAG2; [1]): 0.254 | Array Heatmap signal, ING2 (ING2; [1]): 0.6059 | Array Heatmap signal, KDM5B (3) (KDM5B (3); [1]): 0.5477 | Array Heatmap signal, PHRF1 (RP) (PHRF1 (RP); [1]): 0.4414

H3.3T32pK36me1 (27-45): H3.3 27-45 (KSAPS[pT]GGV[Lys(Me)]KPHRYRPGT; UniProt P84243 28-46, looked up, fragment)
Array Heatmap value (peptide array signal) (DIDO1; DIDO1, sheet "Array Heatmap", each array performed twice, total n = 4): 0.6188 | Array Heatmap value (peptide array signal) (AIRE (PP); AIRE (PP), sheet "Array Heatmap", each array performed twice, total n = 4): 0.3866 | Array Heatmap value (peptide array signal) (KDM5A (3); KDM5A (3), sheet "Array Heatmap", each array performed twice, total n = 4): 0.429 | Array Heatmap value (peptide array signal) (SP140L; SP140L, sheet "Array Heatmap", each array performed twice, total n = 4): 0.3216 | Array Heatmap value (peptide array signal) (KDM7A; KDM7A, sheet "Array Heatmap", each array performed twice, total n = 4): 0.3406 | Array Heatmap value (peptide array signal) (CHD5 (PPCC); CHD5 (PPCC), sheet "Array Heatmap", each array performed twice, total n = 4): 0.4567 | Array Heatmap value (peptide array signal) (KDM4C (TTP); KDM4C (TTP), sheet "Array Heatmap", each array performed twice, total n = 4): 0.4138 | Array Heatmap value (peptide array signal) (BPTF (PB); BPTF (PB), sheet "Array Heatmap", each array performed twice, total n = 4): 0.2876 | Array Heatmap value (peptide array signal) (BAZ2B; BAZ2B, sheet "Array Heatmap", each array performed twice, total n = 4): 0.3924 | Array Heatmap value (peptide array signal) (CHD4 (PPCC); CHD4 (PPCC), sheet "Array Heatmap", each array performed twice, total n = 4): 0.5131 | Array Heatmap value (peptide array signal) (CHD5 (PCC); CHD5 (PCC), sheet "Array Heatmap", each array performed twice, total n = 4): 0.7362 | Array Heatmap value (peptide array signal) (ING3; ING3, sheet "Array Heatmap", each array performed twice, total n = 4): 0.3966 | Array Heatmap value (peptide array signal) (TRIM66 (PB); TRIM66 (PB), sheet "Array Heatmap", each array performed twice, total n = 4): 0.5132 | Array Heatmap value (peptide array signal) (MLL5; MLL5, sheet "Array Heatmap", each array performed twice, total n = 4): 0.508 | Array Heatmap value (peptide array signal) (ING5; ING5, sheet "Array Heatmap", each array performed twice, total n = 4): 0.288 | Array Heatmap value (peptide array signal) (MORC3 (CW); MORC3 (CW), sheet "Array Heatmap", each array performed twice, total n = 4): 0.3018 | Array Heatmap value (peptide array signal) (ING1; ING1, sheet "Array Heatmap", each array performed twice, total n = 4): 0.4774 | Array Heatmap value (peptide array signal) (PHF8; PHF8, sheet "Array Heatmap", each array performed twice, total n = 4): 0.3083 | Array Heatmap value (peptide array signal) (PHF21A; PHF21A, sheet "Array Heatmap", each array performed twice, total n = 4): 0.4142 | Array Heatmap value (peptide array signal) (DPF2 (PPC2W2); DPF2 (PPC2W2), sheet "Array Heatmap", each array performed twice, total n = 4): 0.6269 | Array Heatmap value (peptide array signal) (KDM5B (1); KDM5B (1), sheet "Array Heatmap", each array performed twice, total n = 4): 0.6155 | Array Heatmap value (peptide array signal) (PHF2; PHF2, sheet "Array Heatmap", each array performed twice, total n = 4): 0.4286 | Array Heatmap value (peptide array signal) (PHF13; PHF13, sheet "Array Heatmap", each array performed twice, total n = 4): 0.5172 | Array Heatmap value (peptide array signal) (PHF23; PHF23, sheet "Array Heatmap", each array performed twice, total n = 4): 0.4636 | Array Heatmap value (peptide array signal) (KDM5A (1); KDM5A (1), sheet "Array Heatmap", each array performed twice, total n = 4): 0.4102 | Array Heatmap value (peptide array signal) (TAF3; TAF3, sheet "Array Heatmap", each array performed twice, total n = 4): 0.2218 | Array Heatmap value (peptide array signal) (ING4; ING4, sheet "Array Heatmap", each array performed twice, total n = 4): 0.3862 | Array Heatmap value (peptide array signal) (RAG2; RAG2, sheet "Array Heatmap", each array performed twice, total n = 4): 0.206 | Array Heatmap value (peptide array signal) (ING2; ING2, sheet "Array Heatmap", each array performed twice, total n = 4): 0.5942 | Array Heatmap value (peptide array signal) (KDM5B (3); KDM5B (3), sheet "Array Heatmap", each array performed twice, total n = 4): 0.4083 | Array Heatmap value (peptide array signal) (PHRF1 (RP); PHRF1 (RP), sheet "Array Heatmap", each array performed twice, total n = 4): 0.3716
